In US11660281B2, “Compositions and methods of treating or preventing fibrotic lung diseases” (YALE UNIVERSITY, priority 2017, dated 2023):

Assays:
[1] = tested on: Ppargc1a, Thra and Thrb expression in bleomycin induced mouse lungs; test: quantitative RT-PCR of relative gene expression in lungs, bleomycin model of lung fibrosis; format: in vivo, mice (C57/BL6); conditions: GC-1 30 μg/kg intraperitoneally every other day, days 10-18 after bleomycin; lungs at day 21; FIGS. 3A-3C
Experimental: (§1) C57B1/6, 9-12 weeks-old, female mice were purchased from Taconic Lab. Mice were anesthetized by placing them in a chamber having paper towels soaked with 40% isoflurane solution. 1.5 U/kg of bleomycin (Hospira, Ill.) or equivalent volume (50 μl) of 0.9% normal saline was administered intratracheally. To test therapeutic efficacy in bleomycin-induced established fibrosis intraperitoneal thyroid hormone receptor beta agonist (GC-1, 30 μg/kg) was administered at days 10, 12, 14, 16 and 18 following bleomycin-administration and mice were sacrificed at day 21. The lungs were harvested for fibrotic assays
qRT-PCR assay: Gene expression was determined by TaqMan® (Life Technologies, Thermo Scientific Inc. Rockford Ill., USA) according to manufacturer's instruction. β-glucuronidase (Gusb) was employed as an internal standard control and the specific primers and probes were all obtained from Life Technologies (Thermo Scientific Inc. Rockford Ill., USA). […]
9-12 weeks-old, C57/BL6 female mice were treated every other day intraperitoneally with thyroid hormone receptor beta agonist GC-1 (30 μg/kg) or equivalent volume of empty vehicle (200 μl of normal saline 0.9%) at days 10-18 following intratracheal challenge with bleomycin (1.5 U/kg) or normal saline 0.9%. […] FIGS. 3A-3C illustrate quantitative RT-PCR analysis of Ppargc1a, Thra and Thrb relative expression in the bleomycin model of lung fibrosis. […]

[2] = tested on: bleomycin induced lung fibrosis; test: bleomycin-induced established lung fibrosis in mice: fibrosis and Masson's Trichrome histology; format: in vivo, mice (C57/BL6); conditions: for collagen deposition in the interstitium, peribronchiolar, or perivascular space (Masson's Trichrome staining): days 10-18 after bleomycin, day 21 lung sections; for established fibrosis in bleomycin induced lung fibrosis: days 10-18 after intratracheal bleomycin 1.5 U/kg, sacrifice day 21
Experimental: as §1
Hydroxyproline: Lung hydroxyproline was analyzed with hydroxyproline colorimetric assay kit from Biovision (Milpitas, Calif.) following manufacturer's instruction.
Histology: Tissue sections (4 μm) were stained with Masson Trichrome (collagen/connective tissue), two slices per animal, and two animals per group.
FIG. 1 illustrates an experiment where mice with bleomycin-induced fibrosis were treated with GC-1 intraperitoneally. On Day 0, bleomycin was delivered intratracheally to the mice (1.5 U/kg). On days 10-18, the mice were administered 30 μg/kg of GC-1 (200 μl) or equivalent volume of vehicle (normal saline 0.9%).
9-12 weeks-old, C57/BL6 female mice were treated every other day intraperitoneally with thyroid hormone agonist GC-1 (30 μg/kg) or equivalent volume of empty vehicle (200 μl of normal saline 0.9%) at days 10-18, following intratracheal challenge with bleomycin (1.5 U/kg) or normal saline 0.9%. Mice were sacrificed at day 21. […] Data are expressed as mean hydroxyproline content per lung set (μg/gr lung)+SEM, n=8 mice/group, *p<0.05. FIGS. 2A-2D illustrate quantitative RT-PCR analysis of Col1a1, Col3a1, and FSP1 relative expression in the bleomycin model of lung fibrosis. Bars (means±SEM) are shown for the relative changes (fold) by setting the indicated control level to 1.0, *p<0.05. […]
9-12 weeks-old, C57/BL6 female mice were treated every other day orally by gavage with thyroid hormone receptor agonist GC-1 (5 mg/kg) or equivalent volume of empty vehicle (200 μl of normal saline 0.9%) at days 10-18 following intratracheal challenge with bleomycin (1.5 U/kg) or normal saline 0.9%. […] FIG. 5A: Hydroxyproline level in mice was assessed. Data are expressed as mean hydroxyproline content per lung set (μg/gr lung)+SEM, n=8 mice/group, *p<0.05. FIGS. 5B-5F illustrate quantitative RT-PCR analysis of Col1a1 (collagen, type I, alpha 1), Col3a1 (collagen, type III, alpha 1), FSP1 (fibroblast-specific protein 1), Acta (alpha-actin-2), and Ppargc1a (peroxisome proliferator-activated receptor gamma coactivator 1-alpha) relative expression in the bleomycin model of lung fibrosis. […]

Cc1cc(OCC(=O)O)cc(C)c1Cc1ccc(O)c(C(C)C)c1 [GC-1, 2-(4-(4-hydroxy-3-isopropylbenzyl)-3,5-dimethylphenoxy)acetic acid]
Ppargc1a relative expression (qRT-PCR) [1]: regulates expression
collagen deposition in the interstitium, peribronchiolar, or perivascular space (Masson's Trichrome staining) ([2]; GC-1 30 μg/kg intraperitoneally every other day, FIG. 2E): significant decrease in collagen deposition
established fibrosis in bleomycin induced lung fibrosis ([2]; GC-1 30 μg/kg intraperitoneally every other day, FIGS. 2A-2E): blunt established fibrosis
collagen deposition in the interstitium, peribronchiolar, or perivascular space (Masson's Trichrome staining) ([2]; GC-1 5 mg/kg orally by gavage every other day): significant decrease in collagen deposition
established fibrosis in bleomycin induced lung fibrosis ([2]; GC-1 5 mg/kg orally by gavage every other day, FIGS. 5A-5G): blunt established fibrosis
